The values below come from ChEMBL document CHEMBL5518181, “Studies of antibacterial activity (in vitro and in vivo) and mode of action for des-acyl tridecaptins (DATs)” (Eur J Med Chem, 2024).

Converted amounts (≈) assume the structure as drawn. The source made the active and inactive calls. The calls are words filed in the database; no cut-off is given here. Where only a bound is given, the exact number is not on record here.

In data set [1] the test system is Escherichia coli. Description: Antibacterial activity against wild-type Escherichia coli ATCC 25922 assessed as inhibition of bacterial growth incubated for 18 hrs. The class given is functional. The settings on record: read-out: MIC100.
Data set [2] in a line: Hemolytic activity in human red blood cells at 400 ug/ml incubated for 45 mins by spectrophotometric analysis relative to control. The settings on record: red blood cells (erythrocytes), at 400 µg/mL, read-out: Activity. The class given is toxicity, cell-based, Erythrocyte.
For data set [3], the system named is Klebsiella pneumoniae. Briefly: Antibacterial activity against wild-type Klebsiella pneumoniae ATCC 13883 assessed as inhibition of bacterial growth incubated for 18 hrs. The settings on record: read-out: MIC100. The class given is functional.
The nature of data set [4]: Drug uptake in Escherichia coli ATCC 25922 at 10 uM incubated for 10 mins by LC-MS/MS analysis. The class given is ADME.
A short description of data set [5]: Drug localization in cytoplasm of Escherichia coli ATCC 25922 at 10 uM incubated for 10 mins by LC-MS/MS analysis. The class given is ADME, subcellular.
A short description of data set [6]: Hydrophobicity of compound assessed as %MeCN at peak elution by RP-HPLC analysis. The class given is physicochemical.
In data set [7] the test system is Escherichia coli. Description: Antibacterial activity against wild-type Escherichia coli ATCC 25922 assessed as inhibition of bacterial growth by measuring fold increase in MIC incubated for 18 hrs in presence of 50% heat inactivated human serum relative to control. The class given is functional.
For data set [8], the system named is Staphylococcus aureus. Description: Antibacterial activity against […] assessed as inhibition of bacterial growth incubated for 18 hrs. In kind it is functional. The conditions noted are these: ATCC 29213, read-out: MIC100.
In data set [9] the test system is Klebsiella pneumoniae. Briefly: Antibacterial activity against wild-type Klebsiella pneumoniae ATCC 13883 assessed as inhibition of bacterial growth incubated for 18 hrs in presence of 50% heat inactivated human serum. The class given is functional. The settings on record: read-out: MIC100.
Another data set relates to Acinetobacter baumannii. Description: Antibacterial activity against wild-type Acinetobacter baumannii ATCC 19606 assessed as inhibition of bacterial growth incubated for 20 hrs. The class given is functional. The conditions noted are these: read-out: MIC100.
Data set [10] has as its system Escherichia coli. Description: Antibacterial activity against Escherichia coli ATCC 25922 harboring hldE knock-out assessed as inhibition of bacterial growth incubated for 18 hrs. The class given is functional. The settings on record: read-out: MIC100.
The subject of data set [11] is Escherichia coli. Briefly: Antibacterial activity against wild-type Escherichia coli ATCC 25922 assessed as inhibition of bacterial growth incubated for 18 hrs in presence of 50% heat inactivated human serum. The class given is functional. The settings on record: read-out: MIC100.
In data set [12] the test system is Escherichia coli. Briefly: Antibacterial activity against Escherichia coli ATCC 25922 harboring tolC knock-out assessed as inhibition of bacterial growth incubated for 18 hrs. The class given is functional. The conditions noted are these: read-out: MIC100.
Data set [13] in a line: Cytotoxicity against human HepG2 cells incubated for 40 hrs by celltiter-glo luminescent cell viability assay. In kind it is toxicity, cell-based.
Data set [14] concerns Pseudomonas aeruginosa. Description: Antibacterial activity against wild-type Pseudomonas aeruginosa PAO1 assessed as inhibition of bacterial growth incubated for 24 hrs. The settings on record: read-out: MIC100. In kind it is functional.
A further data set deals with Bacteria. Briefly: Binding affinity to gram negative bacterial lipid II at 250 uM by ITC analysis. Background: Isothermal titration calorimetry measures the heat released or taken up as one component is titrated into another.
In the next data set the test system is Lipopolysaccharide (LPS). Description: Binding affinity to Escherichia coli O55:B5 LPS assessed as dissociation constant by ITC analysis. The class given is subcellular.
The nature of data set [15]: Binding affinity to gram negative bacterial lipid II assessed as dissociation constant by ITC analysis. The arrangement: species or system Bacteria.
Another data set deals with Morganella morganii. Description: Antibacterial activity against Morganella morganii ATCC 25830 assessed as inhibition of bacterial growth incubated for 18 hrs. The class given is functional. The conditions noted are these: read-out: MIC100.
For data set [16], the system named is Escherichia coli. Description: Antibacterial activity against Escherichia coli ATCC BAA-2469 expressing NDM-1 assessed as inhibition of bacterial growth incubated for 18 hrs. The class given is functional. The settings on record: read-out: MIC100.
A further data set deals with Citrobacter freundii. Description: Antibacterial activity against Citrobacter freundii ATCC 8090 assessed as inhibition of bacterial growth incubated for 18 hrs. In kind it is functional. The conditions noted are these: read-out: MIC100.
Data set [17] deals with Escherichia coli. Briefly: Antibacterial activity against Escherichia coli Swiss 9 harboring mcr-1 gene assessed as inhibition of bacterial growth incubated for 18 hrs. The settings on record: read-out: MIC100. In kind it is functional.
Data set [18] has as its system Klebsiella pneumoniae. Description: Antibacterial activity against Klebsiella pneumoniae ATCC 43816 assessed as inhibition of bacterial growth incubated for 18 hrs. The class given is functional. The conditions noted are these: read-out: MIC100.
Data set [19] has as its system Escherichia coli. Briefly: Antibacterial activity against colistin resistant Escherichia coli NCTC 13846 harboring mcr-1 gene assessed as inhibition of bacterial growth incubated for 18 hrs. In kind it is functional. The conditions noted are these: read-out: MIC100.
The subject of another data set is Serratia marcescens. Description: Antibacterial activity against intrinsically colistin resistant Serratia marcescens ATCC 13880 assessed as inhibition of bacterial growth incubated for 18 hrs. The class given is functional. The conditions noted are these: read-out: MIC100.
The next data set concerns Providencia stuartii. Description: Antibacterial activity against Providencia stuartii ATCC 25826 assessed as inhibition of bacterial growth incubated for 18 hrs. The conditions noted are these: read-out: MIC100. In kind it is functional.
Data set [20] concerns Pseudomonas aeruginosa. Briefly: Antibacterial activity against efflux-deficient Pseudomonas aeruginosa PAO750 assessed as inhibition of bacterial growth incubated for 18 hrs. In kind it is functional. The conditions noted are these: read-out: MIC100.
For data set [21], the system named is Escherichia coli. Briefly: Antibacterial activity against Escherichia coli Swiss 7 harboring mcr-1 gene assessed as inhibition of bacterial growth incubated for 18 hrs. The class given is functional. The conditions noted are these: read-out: MIC100.
The subject of data set [22] is Klebsiella pneumoniae. Description: Antibacterial activity against Klebsiella pneumoniae ATCC BAA-2470 expressing NDM-1 assessed as inhibition of bacterial growth incubated for 18 hrs. The conditions noted are these: read-out: MIC100. The class given is functional.
The subject of the next data set is Klebsiella aerogenes. Briefly: Antibacterial activity against Enterobacter aerogenes ATCC 13048 assessed as inhibition of bacterial growth incubated for 18 hrs. The conditions noted are these: read-out: MIC100. In kind it is functional.
The test system of another data set is Proteus mirabilis. Description: Antibacterial activity against Proteus mirabilis ATCC 25933 assessed as inhibition of bacterial growth incubated for 18 hrs. In kind it is functional. The settings on record: read-out: MIC100.
The test system of another data set is Salmonella typhimurium. Description: Antibacterial activity against Salmonella typhimurium ATCC 13311 assessed as inhibition of bacterial growth incubated for 18 hrs. The settings on record: Salmonella enterica, read-out: MIC100. In kind it is functional, Salmonella enterica subsp. enterica serovar Typhimurium.
For data set [23], the system named is Staphylococcus aureus. Description: Antibacterial activity against wild type Staphylococcus aureus USA300 assessed as inhibition of bacterial growth incubated for 18 hrs. In kind it is functional. The conditions noted are these: read-out: MIC100.

With `CC[C@H](C)[C@@H](NC(=O)[C@@H](NC(=O)[C@H](CCC(=O)O)NC(=O)[C@H](Cc1ccccc1)NC(=O)[C@@H](CCN)NC(=O)[C@H](CCN)NC(=O)[C@H](CO)NC(=O)[C@@H](Cc1c[nH]c2ccccc12)NC(=O)[C@@H](CO)NC(=O)CNC(=O)[C@@H](CCN)NC(=O)[C@H](N)C(C)C)C(C)(C)C)C(=O)N[C@@H](C)C(=O)O`, the figures for the MIC in the data set on Escherichia coli [1] and in the data set with Klebsiella pneumoniae [3] were 16 µg/mL (≈ 11.4 µM) and 4 µg/mL (≈ 2.84 µM), respectively. The hemolysis at 0.75 h, 400 ug/ml in data set [2] was found to be 86.3%. Besides, the Drug uptake result in data set [4] and in [5] was “Active” each time.
As usually defined, the IC50 is the midpoint of a concentration-inhibition curve. A lower IC50 goes with greater potency. `CC[C@H](N)C(=O)N[C@@H](C(=O)N[C@H](CCN)C(=O)NCC(=O)N[C@H](CO)C(=O)N[C@H](Cc1c[nH]c2ccccc12)C(=O)N[C@@H](CO)C(=O)N[C@@H](CCN)C(=O)N[C@H](CCN)C(=O)N[C@@H](Cc1ccccc1)C(=O)N[C@@H](CCC(=O)O)C(=O)N[C@H](C(=O)N[C@@H](C(=O)N[C@@H](C)C(=O)O)[C@@H](C)CC)C(C)C)C(C)C`: the “MeCN percentage at peak elution” value in [6] stood at 40.7%. Moreover, the “fold change (FC)” value with Escherichia coli [7] is reported as 2. For the same molecule, the MIC in the data set with Staphylococcus aureus [8] was over 64 µg/mL; in the data set on Klebsiella pneumoniae [9], 0.5 µg/mL; in the data set with Acinetobacter baumannii it was 64 µg/mL (≈ 43.3 µM); in the data set on Escherichia coli [1], 2 µg/mL (≈ 1.35 µM); in the data set with Escherichia coli [10] it was 1 µg/mL (≈ 0.676 µM); in the data set on Escherichia coli [11], 1 µg/mL. The MIC in the data set on Escherichia coli [12] was 1 µg/mL (≈ 0.676 µM); in the data set on Klebsiella pneumoniae [3] it was 2 µg/mL (≈ 1.35 µM); in the data set on Pseudomonas aeruginosa [14], 64 µg/mL (≈ 43.3 µM). For the same molecule, the hemolysis at 0.75 h, 400 ug/ml in data set [2] came to 8.8%. In data set [13], this molecule had an IC50 at 40 h of 95 µg/mL (≈ 64.2 µM).
Broadly, the Kd is the concentration at which binding is half-saturated. Turning to `CC[C@H](C)[C@@H](NC(=O)[C@@H](NC(=O)[C@H](CCC(=O)O)NC(=O)[C@H](Cc1ccccc1)NC(=O)[C@@H](CCN)NC(=O)[C@H](CCN)NC(=O)[C@H](CO)NC(=O)[C@@H](Cc1c[nH]c2ccccc12)NC(=O)[C@@H](CO)NC(=O)CNC(=O)[C@@H](CCN)NC(=O)[C@H](N)C(C)C)C(C)(C)C)C(=O)N[C@@H](C)C(N)=O`, the “MeCN percentage at peak elution” value in data set [6] is 41%. For the same molecule, the “fold change (FC)” value with Escherichia coli [7] is on record as 2. Moreover, the result with Bacteria was inactive. Moreover, the MIC is over 64 µg/mL in the data set on Staphylococcus aureus [8]; 4 µg/mL in the data set on Klebsiella pneumoniae [9]; over 64 µg/mL with Acinetobacter baumannii; 4 µg/mL (≈ 2.84 µM) in the data set on Escherichia coli [1]; 0.125 µg/mL (≈ 0.0888 µM) in the data set with Escherichia coli [10]; 2 µg/mL with Escherichia coli [11]. Also, the MIC came out at 0.25 µg/mL (≈ 0.178 µM) with Escherichia coli [12], 2 µg/mL (≈ 1.42 µM) in the data set on Klebsiella pneumoniae [3] and 16 µg/mL (≈ 11.4 µM) in the data set on Pseudomonas aeruginosa [14]. Also, in [2], the hemolysis at 0.75 h, 400 ug/ml amounted to 2.6%. The IC50 at 40 h in data set [13] came out at 93 µg/mL (≈ 66.1 µM). For the same molecule, the Kd with Lipopolysaccharide (LPS) was 16.7 µM.
In the case of `CC[C@H](C)[C@@H](NC(=O)[C@@H](NC(=O)[C@H](CCC(=O)O)NC(=O)[C@H](Cc1c[nH]c2ccccc12)NC(=O)[C@@H](CCN)NC(=O)[C@H](CCN)NC(=O)[C@H](CO)NC(=O)[C@@H](Cc1c[nH]c2ccccc12)NC(=O)[C@@H](CO)NC(=O)CNC(=O)[C@@H](CCN)NC(=O)[C@H](NC(=O)[C@H](C)N)C(C)C)C(C)C)C(=O)N[C@@H](C)C(=O)O`, the dissociation constant (Kd) in data set [15] is 5.2 µM; in the data set with Lipopolysaccharide (LPS), 14.8 µM. The MIC in the data set on Escherichia coli [1] and in the data set on Klebsiella pneumoniae [3] was 1 µg/mL (≈ 0.665 µM) throughout. Besides, the hemolysis at 0.75 h, 400 ug/ml in [2] is 41.7%. For the same molecule, the IC50 at 40 h in data set [13] worked out at 151 µg/mL (≈ 100 µM).
In the case of `O=C(O)c1cn(C2CC2)c2cc(N3CCNCC3)c(F)cc2c1=O` [CIPROFLOXACIN], the MIC with Morganella morganii was 0.002 µg/mL (≈ 0.00604 µM); in the data set on Escherichia coli [16] it was over 1 µg/mL; in the data set on Citrobacter freundii, 0.004 µg/mL (≈ 0.0121 µM); in the data set on Escherichia coli [17] it was over 1 µg/mL; with Klebsiella pneumoniae [18] it was 0.003 µg/mL (≈ 0.00905 µM); in the data set with Escherichia coli [19], over 1 µg/mL. In addition, the MIC was 0.032 µg/mL (≈ 0.0966 µM) in the data set with Serratia marcescens; 0.016 µg/mL (≈ 0.0483 µM) in the data set with Providencia stuartii; 0.004 µg/mL (≈ 0.0121 µM) in the data set with Pseudomonas aeruginosa [20]; 0.032 µg/mL (≈ 0.0966 µM) in the data set on Klebsiella pneumoniae [3]; over 1 µg/mL with Escherichia coli [21]; over 1 µg/mL in the data set with Klebsiella pneumoniae [22]. Besides, the MIC in the data set with Klebsiella aerogenes came to 0.008 µg/mL (≈ 0.0241 µM); with Proteus mirabilis it was 0.016 µg/mL (≈ 0.0483 µM); with Salmonella typhimurium, 0.004 µg/mL (≈ 0.0121 µM); with Staphylococcus aureus [23], 1 µg/mL (≈ 3.02 µM). Besides, the IC50 at 40 h in data set [13] was over 170 µg/mL.
